Reference: patent publication US11479578B2, “Protein purification and virus inactivation with alkyl glycosides” (priority 2017, dated 2022)
Like-named read-outs stand apart in the source and are kept apart here.

Assays:
PRV (pseudorabies virus) = assay type: cell-based
[1] = tested on: MuLV (murine leukemia virus); assay type: cell-based
[2] = tested on: BVDV (bovine viral diarrhea virus); assay type: cell-based
[3] = tested on: VSV (Vesicular Stomatitis Virus); assay type: cell-based
VACV (Vaccinia virus) = assay type: cell-based
rD′D3-FP = target: T1, rD′D3-FP (Homo sapiens, UniProt P02768+P04275)
T1 construct: made in house; host or cells: CHO cells
T1 sequence (P04275+P02768 fused): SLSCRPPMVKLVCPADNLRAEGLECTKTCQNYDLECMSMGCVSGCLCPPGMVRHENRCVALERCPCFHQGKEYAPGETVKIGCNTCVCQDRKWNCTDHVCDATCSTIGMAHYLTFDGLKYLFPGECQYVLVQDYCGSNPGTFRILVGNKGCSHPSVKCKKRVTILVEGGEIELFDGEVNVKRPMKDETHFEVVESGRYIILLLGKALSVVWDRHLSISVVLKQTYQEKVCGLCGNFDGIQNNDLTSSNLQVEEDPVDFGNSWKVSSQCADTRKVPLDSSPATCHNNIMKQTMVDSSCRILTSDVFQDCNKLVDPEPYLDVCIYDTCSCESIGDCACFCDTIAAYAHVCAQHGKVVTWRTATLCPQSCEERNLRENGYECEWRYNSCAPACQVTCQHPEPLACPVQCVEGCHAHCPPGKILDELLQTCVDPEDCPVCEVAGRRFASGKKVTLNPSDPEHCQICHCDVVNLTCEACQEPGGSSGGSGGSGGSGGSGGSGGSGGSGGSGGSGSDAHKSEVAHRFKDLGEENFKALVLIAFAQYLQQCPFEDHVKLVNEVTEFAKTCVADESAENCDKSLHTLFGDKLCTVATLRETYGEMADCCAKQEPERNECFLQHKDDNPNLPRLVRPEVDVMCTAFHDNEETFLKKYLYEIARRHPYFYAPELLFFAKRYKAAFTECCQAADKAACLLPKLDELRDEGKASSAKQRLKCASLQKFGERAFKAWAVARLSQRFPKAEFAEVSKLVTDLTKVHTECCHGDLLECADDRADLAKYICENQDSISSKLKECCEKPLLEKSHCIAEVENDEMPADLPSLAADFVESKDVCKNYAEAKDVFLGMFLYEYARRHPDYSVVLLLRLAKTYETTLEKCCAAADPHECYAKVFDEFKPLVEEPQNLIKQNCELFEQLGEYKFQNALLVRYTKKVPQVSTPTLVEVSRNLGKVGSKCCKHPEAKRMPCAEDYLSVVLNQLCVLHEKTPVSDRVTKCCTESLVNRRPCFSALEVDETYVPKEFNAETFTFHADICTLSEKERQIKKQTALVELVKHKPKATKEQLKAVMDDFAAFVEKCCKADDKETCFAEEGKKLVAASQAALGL

CCCCCCCCCCCCO[C@@H]1O[C@H](CO)[C@@H](O)[C@H](O)[C@H]1O [DDG, n-dodecyl-beta-D-glucopyranoside]
PRV virus titre after treatment (PRV (pseudorabies virus)): ≤2.2 | virus inactivation capacity (in words) (PRV (pseudorabies virus)): effective

CCCCCCCCCCCCO[C@@H]1O[C@H](CO)[C@@H](O[C@H]2O[C@H](CO)[C@@H](O)[C@H](O)[C@H]2O)[C@H](O)[C@H]1O [DDM, n-dodecyl-beta-D-maltoside]
PRV virus titre after treatment (PRV (pseudorabies virus)): ≤4.2 | virus inactivation capacity (in words) (PRV (pseudorabies virus)): effective

CCCCCCCCCCO[C@@H]1O[C@H](CO)[C@@H](O)[C@H](O)[C@H]1O [DG, n-decyl-beta-D-glucopyranoside]
PRV virus titre after treatment (PRV (pseudorabies virus)): ≤2.2 | virus inactivation capacity (in words) (PRV (pseudorabies virus)): effective

CCCCCCCCCCO[C@@H]1O[C@H](CO)[C@@H](O[C@H]2O[C@H](CO)[C@@H](O)[C@H](O)[C@H]2O)[C@H](O)[C@H]1O [DM, n-decyl-beta-D-maltoside]
PRV virus titre after treatment (PRV (pseudorabies virus)): ≤2.2 | virus inactivation capacity (in words) (PRV (pseudorabies virus)): effective

CCCCCCCCO[C@@H]1O[C@H](CO)[C@@H](O)[C@H](O)[C@H]1O [OG, n-octyl-beta-D-glucopyranoside]
LRV [1]: ≥4.2 log10 | MuLV virus titre after treatment [1]: ≤1.2 | time to complete MuLV inactivation [1]: ≤ 15 min | BVDV virus titre after treatment [2]: ≤1.2 | LRV [2]: ≥5.3 log10 | time to complete BVDV inactivation [2]: ≤ 15 min | LRV (PRV (pseudorabies virus)): ≥6.3 log10 | time to complete PRV inactivation (PRV (pseudorabies virus)): 60 min | virus inactivation capacity (in words) (PRV (pseudorabies virus)): effective | PRV Load (PRV (pseudorabies virus); 15 min): ≤1.2 log10 | PRV Load (PRV (pseudorabies virus); 120 min): 6.7 log10 | VSV virus titre after treatment [3]: ≤1.5 | VACV inactivation (in words) (VACV (Vaccinia virus)): completely inactivates VACV very fast | VACV virus titre after treatment (VACV (Vaccinia virus)): ≤1.5 | rD′D3-FP in the eluate fraction (rD′D3-FP): 83%

CCCCCCCCO[C@@H]1O[C@H](CO)[C@@H](O[C@H]2O[C@H](CO)[C@@H](O)[C@H](O)[C@H]2O)[C@H](O)[C@H]1O [OM, n-octyl-beta-D-maltoside]
virus inactivation capacity (in words) (PRV (pseudorabies virus)): effective
